Assay results reported in ChEMBL document CHEMBL3784917, “Recent Progress in Histone Demethylase Inhibitors” (J Med Chem, 2016).

Tests used:
[1] = target: T1, Lysine-specific demethylase 2B (Homo sapiens, UniProt Q8NHM5); assay: biochemical
T1 sequence (Q8NHM5 whole entry): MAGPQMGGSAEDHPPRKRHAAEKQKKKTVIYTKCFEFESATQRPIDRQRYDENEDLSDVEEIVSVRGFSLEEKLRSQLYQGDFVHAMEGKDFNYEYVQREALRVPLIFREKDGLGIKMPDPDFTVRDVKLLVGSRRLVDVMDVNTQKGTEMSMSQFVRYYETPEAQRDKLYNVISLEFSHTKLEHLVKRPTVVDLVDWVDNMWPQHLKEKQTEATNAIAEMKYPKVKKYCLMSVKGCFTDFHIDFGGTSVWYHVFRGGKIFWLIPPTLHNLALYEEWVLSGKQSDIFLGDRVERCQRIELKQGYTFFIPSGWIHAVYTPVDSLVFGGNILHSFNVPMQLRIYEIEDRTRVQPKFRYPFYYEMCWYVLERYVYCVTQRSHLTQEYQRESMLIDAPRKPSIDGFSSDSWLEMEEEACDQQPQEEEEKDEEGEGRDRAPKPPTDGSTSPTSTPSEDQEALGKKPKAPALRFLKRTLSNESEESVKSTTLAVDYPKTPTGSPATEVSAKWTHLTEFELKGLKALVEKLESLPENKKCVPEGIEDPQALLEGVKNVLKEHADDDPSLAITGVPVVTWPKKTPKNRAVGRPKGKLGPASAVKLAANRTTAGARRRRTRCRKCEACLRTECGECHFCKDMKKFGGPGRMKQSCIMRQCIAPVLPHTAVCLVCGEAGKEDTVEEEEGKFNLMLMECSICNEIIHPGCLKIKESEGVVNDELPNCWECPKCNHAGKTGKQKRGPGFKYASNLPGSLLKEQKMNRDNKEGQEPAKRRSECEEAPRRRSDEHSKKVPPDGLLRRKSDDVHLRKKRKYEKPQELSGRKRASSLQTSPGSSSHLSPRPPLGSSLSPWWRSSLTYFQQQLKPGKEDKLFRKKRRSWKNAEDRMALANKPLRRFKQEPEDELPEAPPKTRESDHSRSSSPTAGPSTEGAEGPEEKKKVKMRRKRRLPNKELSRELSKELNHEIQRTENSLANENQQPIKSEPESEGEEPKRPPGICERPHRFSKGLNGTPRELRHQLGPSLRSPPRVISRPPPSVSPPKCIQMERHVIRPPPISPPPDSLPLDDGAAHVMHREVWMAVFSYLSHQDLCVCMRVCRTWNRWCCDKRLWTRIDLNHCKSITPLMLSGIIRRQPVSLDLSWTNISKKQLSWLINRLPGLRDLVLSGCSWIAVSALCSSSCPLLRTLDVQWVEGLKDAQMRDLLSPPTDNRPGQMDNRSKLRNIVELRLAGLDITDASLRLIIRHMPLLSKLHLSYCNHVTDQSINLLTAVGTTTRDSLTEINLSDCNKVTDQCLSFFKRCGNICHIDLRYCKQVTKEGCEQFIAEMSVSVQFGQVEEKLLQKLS

[2] = target: T2, Lysine-specific demethylase 4B (Homo sapiens, UniProt O94953); assay: Inhibition of human N-terminal GST-tagged KDM4B (1 to 500 residues) expressed in baculovirus infected sf9 cells using biotinylated histone H3 as substrate preincubated for 10 mins followed by substrate addition measured after 10 mins by AlphaLisa assay
T2 sequence (O94953 whole entry): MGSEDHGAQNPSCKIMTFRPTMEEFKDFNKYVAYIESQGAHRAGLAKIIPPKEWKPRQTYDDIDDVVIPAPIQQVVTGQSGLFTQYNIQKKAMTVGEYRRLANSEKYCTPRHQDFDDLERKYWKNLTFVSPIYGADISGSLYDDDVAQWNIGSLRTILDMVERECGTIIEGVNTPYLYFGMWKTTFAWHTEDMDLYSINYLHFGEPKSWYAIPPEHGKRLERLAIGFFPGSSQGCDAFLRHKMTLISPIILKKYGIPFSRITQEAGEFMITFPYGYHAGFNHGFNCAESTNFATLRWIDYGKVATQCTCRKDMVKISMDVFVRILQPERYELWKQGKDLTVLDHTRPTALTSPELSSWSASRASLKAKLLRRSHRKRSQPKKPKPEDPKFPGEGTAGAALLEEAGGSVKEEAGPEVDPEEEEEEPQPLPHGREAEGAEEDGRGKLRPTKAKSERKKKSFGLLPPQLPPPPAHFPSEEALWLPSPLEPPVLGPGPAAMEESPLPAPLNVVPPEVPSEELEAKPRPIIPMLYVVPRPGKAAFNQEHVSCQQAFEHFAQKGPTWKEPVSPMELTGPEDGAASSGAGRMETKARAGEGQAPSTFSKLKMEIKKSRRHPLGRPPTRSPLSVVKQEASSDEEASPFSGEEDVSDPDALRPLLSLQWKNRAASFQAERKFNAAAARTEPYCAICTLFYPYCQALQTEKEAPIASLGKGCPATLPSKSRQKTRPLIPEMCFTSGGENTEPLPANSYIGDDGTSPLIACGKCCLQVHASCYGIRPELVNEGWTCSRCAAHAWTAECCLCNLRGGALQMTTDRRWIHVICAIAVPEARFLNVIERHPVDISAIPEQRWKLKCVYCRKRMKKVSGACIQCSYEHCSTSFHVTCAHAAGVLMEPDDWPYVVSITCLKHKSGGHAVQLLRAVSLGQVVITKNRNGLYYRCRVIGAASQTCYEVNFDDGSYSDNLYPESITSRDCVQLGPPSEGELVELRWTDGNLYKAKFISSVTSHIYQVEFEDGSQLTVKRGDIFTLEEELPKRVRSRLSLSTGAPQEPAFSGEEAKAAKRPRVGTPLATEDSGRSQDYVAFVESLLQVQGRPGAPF

[3] = target: Lysine-specific demethylase 3B (Homo sapiens, UniProt Q7LBC6); assay: biochemical
Sequence of Lysine-specific demethylase 3B (Q7LBC6 whole entry): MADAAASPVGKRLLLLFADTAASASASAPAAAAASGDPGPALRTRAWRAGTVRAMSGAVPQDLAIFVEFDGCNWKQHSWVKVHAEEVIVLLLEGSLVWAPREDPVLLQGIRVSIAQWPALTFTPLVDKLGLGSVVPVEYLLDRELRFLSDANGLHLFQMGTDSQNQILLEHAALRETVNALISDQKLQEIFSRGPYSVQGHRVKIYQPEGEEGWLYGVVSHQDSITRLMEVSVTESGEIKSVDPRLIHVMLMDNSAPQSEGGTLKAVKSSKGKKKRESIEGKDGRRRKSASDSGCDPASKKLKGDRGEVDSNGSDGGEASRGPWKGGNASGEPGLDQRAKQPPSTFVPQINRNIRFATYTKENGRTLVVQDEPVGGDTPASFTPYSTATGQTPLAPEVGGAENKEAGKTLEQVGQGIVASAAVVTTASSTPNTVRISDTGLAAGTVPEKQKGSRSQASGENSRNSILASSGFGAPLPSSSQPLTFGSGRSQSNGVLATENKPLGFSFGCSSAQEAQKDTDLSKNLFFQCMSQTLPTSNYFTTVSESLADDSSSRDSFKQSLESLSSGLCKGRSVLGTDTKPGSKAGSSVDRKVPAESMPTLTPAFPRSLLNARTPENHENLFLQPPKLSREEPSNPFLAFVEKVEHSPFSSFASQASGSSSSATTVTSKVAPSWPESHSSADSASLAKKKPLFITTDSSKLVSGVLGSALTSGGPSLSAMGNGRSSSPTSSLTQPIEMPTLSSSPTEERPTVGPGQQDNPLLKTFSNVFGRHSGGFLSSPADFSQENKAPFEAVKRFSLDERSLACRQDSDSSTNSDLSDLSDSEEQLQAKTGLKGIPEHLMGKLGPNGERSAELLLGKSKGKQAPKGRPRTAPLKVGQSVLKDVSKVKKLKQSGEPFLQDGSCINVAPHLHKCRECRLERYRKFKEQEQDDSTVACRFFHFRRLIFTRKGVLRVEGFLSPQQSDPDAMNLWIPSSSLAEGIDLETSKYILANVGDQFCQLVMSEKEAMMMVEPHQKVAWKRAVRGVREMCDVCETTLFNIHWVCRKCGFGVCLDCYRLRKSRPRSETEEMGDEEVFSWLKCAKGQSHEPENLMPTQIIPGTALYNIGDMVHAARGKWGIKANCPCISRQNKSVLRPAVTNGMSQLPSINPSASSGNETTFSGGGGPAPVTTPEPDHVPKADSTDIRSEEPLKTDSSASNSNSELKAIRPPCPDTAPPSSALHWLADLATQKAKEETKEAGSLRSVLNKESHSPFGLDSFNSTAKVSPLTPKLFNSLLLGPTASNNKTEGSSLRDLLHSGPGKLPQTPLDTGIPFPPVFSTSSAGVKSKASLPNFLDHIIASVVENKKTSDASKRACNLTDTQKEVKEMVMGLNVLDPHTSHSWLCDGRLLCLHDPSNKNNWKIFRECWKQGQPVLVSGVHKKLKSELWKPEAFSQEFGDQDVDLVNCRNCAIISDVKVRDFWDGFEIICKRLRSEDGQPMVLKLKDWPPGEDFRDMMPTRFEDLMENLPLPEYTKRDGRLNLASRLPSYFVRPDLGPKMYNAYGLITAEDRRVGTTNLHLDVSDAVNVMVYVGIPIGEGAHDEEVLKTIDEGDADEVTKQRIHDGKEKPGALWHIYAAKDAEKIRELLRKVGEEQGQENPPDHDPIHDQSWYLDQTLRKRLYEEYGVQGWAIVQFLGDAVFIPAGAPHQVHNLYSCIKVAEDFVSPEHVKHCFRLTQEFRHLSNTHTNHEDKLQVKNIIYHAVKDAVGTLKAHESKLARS

Structure (SMILES)	IC50 [1] [nM]	IC50 [2] [nM]	IC50 [3] [nM]
CCN(CCN(C)C)C(=O)CNCc1cc(CNC(=O)C(F)(F)F)ccn1	> 2500	> 2500	> 2500
CCN(CC)CCCCNCc1cc(C=O)ccn1	> 2500	< 250	> 2500
CCN(CCN(C)C)C(=O)CNCc1cc(C(=O)O)ccn1	100	< 100	> 1000
